Reference: ChEMBL document CHEMBL1201862, “PubChem BioAssay data set” (2004)
Activity calls are given as the source filed them.

Assays:
[1] = biological target: FAD-linked sulfhydryl oxidase ALR (Homo sapiens, UniProt P55789); experiment: inhibitors of human ALR sulfhydryl oxidase, dose response, biochemical, H2O2 detection, luminescence, cherry-pick (AID 493248)
[2] = biological target: T1, RNA-binding protein pos-1 (Caenorhabditis elegans, UniProt G5EF15); experiment: inhibitors of POS-1/mex-3 RNA binding, dose response, biochemical, fluorescence polarization (AID 1964);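 note: purified POS-1 fused to maltose binding protein made in E. coli; potency of compounds blocking POS-1 binding to fluorescent RNA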
T1 sequence (G5EF15 whole entry): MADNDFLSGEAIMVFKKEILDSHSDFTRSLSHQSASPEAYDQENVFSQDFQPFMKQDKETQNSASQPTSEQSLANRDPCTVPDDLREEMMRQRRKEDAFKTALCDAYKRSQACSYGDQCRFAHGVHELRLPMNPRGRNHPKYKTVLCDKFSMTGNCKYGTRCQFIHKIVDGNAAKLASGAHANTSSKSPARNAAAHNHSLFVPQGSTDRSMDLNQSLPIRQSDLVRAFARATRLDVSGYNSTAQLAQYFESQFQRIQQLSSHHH

[3] = biological target: T2, Zinc finger protein mex-5 (Caenorhabditis elegans, UniProt Q9XUB2); experiment: MEX-5/TCR-2 RNA interaction inhibitors, dose response, biochemical, C. elegans, fluorescence polarization (AID 1960)
T2 sequence (Q9XUB2 whole entry): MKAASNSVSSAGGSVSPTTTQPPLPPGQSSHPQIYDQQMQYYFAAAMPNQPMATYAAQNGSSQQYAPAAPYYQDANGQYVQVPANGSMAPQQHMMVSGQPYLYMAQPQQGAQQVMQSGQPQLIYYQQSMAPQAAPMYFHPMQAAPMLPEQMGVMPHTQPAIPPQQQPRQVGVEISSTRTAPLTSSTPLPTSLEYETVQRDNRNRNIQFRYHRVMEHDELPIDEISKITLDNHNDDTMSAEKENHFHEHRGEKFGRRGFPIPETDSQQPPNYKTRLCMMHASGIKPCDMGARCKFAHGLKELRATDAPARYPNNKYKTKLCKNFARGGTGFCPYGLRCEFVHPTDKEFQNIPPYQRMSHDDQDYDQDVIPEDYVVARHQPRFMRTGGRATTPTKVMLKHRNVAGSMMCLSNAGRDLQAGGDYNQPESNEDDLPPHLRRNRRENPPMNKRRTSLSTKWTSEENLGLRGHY

[4] = inhibitors of HIV Env-driven cell fusion, dose response, cherry-pick (AID 652057); type: functional, cell-based
[5] = ZM109 Env clade C HIV-1 fusion inhibitors, dose response, HeLa effector, CEM target cells, luciferase, cherry-pick (AID 652058); type: functional, cell-based
[6] = off-target signal loss in HeLa-CEM21 co-culture – HeLa F-luc CTL cells, cherry-picked, counter-screen for HIV-1 Env fusion inhibitor project, dose response (AID 652040); type: functional, cell-based;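 note: potency for signal decrease marking cytotoxic or nonspecific inhibition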
[7] = inhibitors of clade B AD8 Env fusion, dose response, cell-based, cherry-pick (AID 652062); type: functional;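 note: luciferase signal from cell-cell fusion driven by HIV-1 clade B AD8 Env; potency is for inhibitors of fusion seen as a drop in luminescence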
[8] = inhibitors of intracellular T. cruzi replication, confirmation, NIH3T3 host cells, beta-gal luminescence (AID 2044); type: functional, cell-based;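 note: intracellular parasites grown in NIH/3T3 mouse fibroblasts as host cells; luminescent beta-galactosidase reporter signal from transgenic T. cruzi replicating inside host cells; inhibitors lower the luminescence signal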
[9] = cytotoxicity toward NIH3T3 fibroblasts, dose response, counter-screen, cell-based, ATP luminescence, mouse fibroblasts (AID 2010); type: functional;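 note: cells exposed to compound for about 90 hours before reading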
[10] = biological target: T3, Rac GTPase-activating protein 1 (Homo sapiens, UniProt Q9H0H5); experiment: MgcRacGAP GTPase-activating activity inhibitors, confirmation, biochemical, ADP Hunter fluorescence, primary and confirmatory (AID 624330); type: functional
T3 sequence (Q9H0H5 whole entry): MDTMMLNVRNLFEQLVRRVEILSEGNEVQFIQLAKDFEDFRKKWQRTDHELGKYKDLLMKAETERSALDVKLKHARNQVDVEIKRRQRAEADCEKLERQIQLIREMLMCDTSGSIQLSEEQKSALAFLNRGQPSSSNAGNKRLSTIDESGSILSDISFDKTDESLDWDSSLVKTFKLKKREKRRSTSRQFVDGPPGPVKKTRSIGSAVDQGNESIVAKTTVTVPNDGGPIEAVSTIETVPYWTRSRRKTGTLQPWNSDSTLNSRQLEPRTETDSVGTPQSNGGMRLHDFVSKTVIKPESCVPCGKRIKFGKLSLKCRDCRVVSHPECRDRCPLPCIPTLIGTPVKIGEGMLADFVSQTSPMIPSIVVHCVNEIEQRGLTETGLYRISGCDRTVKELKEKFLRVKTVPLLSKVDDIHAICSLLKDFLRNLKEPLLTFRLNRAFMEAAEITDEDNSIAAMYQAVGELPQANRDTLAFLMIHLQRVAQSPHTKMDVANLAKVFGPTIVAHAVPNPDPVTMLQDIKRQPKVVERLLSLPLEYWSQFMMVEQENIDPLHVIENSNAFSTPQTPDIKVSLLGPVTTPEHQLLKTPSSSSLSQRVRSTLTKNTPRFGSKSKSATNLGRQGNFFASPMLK

[11] = system: Streptococcus sp. 'group A'; experiment: growth inhibition of control SK(-) GAS strain, dose response, counter-screen for streptokinase expression inhibitor project, luminescence, kanamycin, BacTiterGlo, confirmation (AID 1900); type: functional, organism-based
Streptokinase A = biological target: T4, Streptokinase A (Streptococcus pyogenes serotype M1, UniProt P10520); experiment: S. pyogenes streptokinase expression inhibitors, potency, dose response, plasminogen activation absorbance, OD405 (AID 1914); type: functional, Streptococcus pyogenes M1 GAS;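 note: secreted streptokinase activity via plasminogen activation per viability signal from cell pellet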
T4 sequence (P10520 whole entry): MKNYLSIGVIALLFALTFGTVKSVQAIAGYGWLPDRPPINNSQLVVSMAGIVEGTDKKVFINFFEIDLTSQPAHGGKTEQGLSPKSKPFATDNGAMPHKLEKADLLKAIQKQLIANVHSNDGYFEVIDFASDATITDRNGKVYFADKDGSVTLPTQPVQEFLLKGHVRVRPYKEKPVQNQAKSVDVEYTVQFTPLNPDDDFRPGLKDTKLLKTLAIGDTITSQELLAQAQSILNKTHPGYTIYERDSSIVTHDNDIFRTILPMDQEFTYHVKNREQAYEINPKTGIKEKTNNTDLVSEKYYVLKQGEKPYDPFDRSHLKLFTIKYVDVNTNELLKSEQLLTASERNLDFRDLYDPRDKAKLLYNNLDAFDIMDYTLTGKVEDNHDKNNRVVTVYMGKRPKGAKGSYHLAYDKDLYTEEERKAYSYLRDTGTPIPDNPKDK

Streptococcus = experiment: Group A Streptococcus viability loss, dose response, counter-screen for streptokinase expression inhibitor project, luminescence, BacTiterGlo (AID 1915); type: functional, organism-based;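 note: potency for reduction of bacterial viability or growth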
[12] = biological target: T5, Heat shock factor protein 1 (Mus musculus, UniProt P38532); experiment: inhibition of MG132-induced HSE-luciferase signal, confirmation, cell-based, NIH3T3, luminescence, dose retest (AID 2382); type: functional;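 note: NIH3T3 fibroblasts with HSF1-driven luciferase reporter stressed by proteasome inhibitor MG132; luminescence from HSF1-driven luciferase expression after 8 hours of MG132 stress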
T5 sequence (P38532 whole entry): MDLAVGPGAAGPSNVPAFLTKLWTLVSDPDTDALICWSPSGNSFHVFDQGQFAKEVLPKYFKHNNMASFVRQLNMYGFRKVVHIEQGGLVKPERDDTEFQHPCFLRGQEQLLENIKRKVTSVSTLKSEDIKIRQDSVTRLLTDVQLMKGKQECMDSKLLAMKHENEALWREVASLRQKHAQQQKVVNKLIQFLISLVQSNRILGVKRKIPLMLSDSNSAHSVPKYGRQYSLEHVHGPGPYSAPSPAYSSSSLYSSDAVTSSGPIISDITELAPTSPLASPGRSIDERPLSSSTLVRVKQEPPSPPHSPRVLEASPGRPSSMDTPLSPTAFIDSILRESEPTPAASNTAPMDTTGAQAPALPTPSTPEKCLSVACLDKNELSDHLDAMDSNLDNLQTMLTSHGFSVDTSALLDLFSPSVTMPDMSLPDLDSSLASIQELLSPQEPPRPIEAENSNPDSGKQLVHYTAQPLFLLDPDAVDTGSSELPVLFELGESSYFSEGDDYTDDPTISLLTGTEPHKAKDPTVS

[13] = intracellular Trypanosoma cruzi inhibitors in host cells – cell-based, plate reader, cherry-pick samples, set 3, dose response (AID 651818); type: functional;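 note: compounds incubated with infected cells for about four days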

Chain of FAD-linked sulfhydryl oxidase ALR (P55789 whole entry, the tested form may be a part): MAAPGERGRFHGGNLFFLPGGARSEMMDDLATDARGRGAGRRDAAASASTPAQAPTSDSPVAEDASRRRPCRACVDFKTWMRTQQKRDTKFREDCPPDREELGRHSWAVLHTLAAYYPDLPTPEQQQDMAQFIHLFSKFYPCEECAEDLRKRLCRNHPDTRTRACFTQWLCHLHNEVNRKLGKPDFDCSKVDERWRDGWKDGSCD

For `Nc1scc(-c2ccncc2)c1Cl`, the AC50 [1] was 1.73 µM (active).
For `Nc1ncc(Br)cc1S(=O)(=O)NCCC(=O)N1CCN(c2ccccc2)CC1`, the AC50 [1] was 1.56 µM (active).
For `Cc1ccc2nc(O)c(CN(CCO)Cc3nnnn3CCc3ccccc3)cc2c1`, the EC50 [2] was > 300 µM (not active) and the EC50 [3] was > 300 µM (not active).
For `O=C(N[C@H]1CP(=O)(Oc2ccccc2)O[C@H](COCc2ccccc2)[C@H]1O)C(Cl)(Cl)Cl` (stereo not given in full), the EC50 [2] was > 300 µM (not active) and the EC50 [3] was > 300 µM (not active).
For `CN(C)c1ccc(C(c2nnnn2C(C)(C)C)N2CCN(C(=O)c3ccco3)CC2)cc1` (stereo not given), the AC50 [1] was 3.83 µM (active).
With `COC(=O)CCC(=O)OC1(C)C(=O)C2=CN(CCc3ccccn3)C(c3ccc(OC)cc3)=CC2=C(Br)C1=O` (stereo not given) the EC50 [2] was 68.5 µM (active) and the EC50 [3] was 8.83 µM (active).
For `CC(C)CNC(=O)c1ccccc1NC(=O)c1ccccc1N(C)S(=O)(=O)c1ccccc1`, the AC50 [4] was 0.961 µM (active), the AC50 [5] was 0.937 µM (active) and the AC50 [6] was 1.62 µM (active). For the same molecule, the AC50 [7] was 0.261 µM (active).
For `CC(C)(C)OC(=O)NCCCC1=CC2=CC(=O)C(C)(OC(=O)c3ccco3)C(=O)C2=CO1` (stereo not given), the EC50 [2] was 46.9 µM (active) and the EC50 [3] was 46.8 µM (active).
For `CN(Cc1ccc(Cl)cc1Cl)C(=O)c1cccc(S(=O)(=O)N2CCN(c3ccccc3)CC2)c1`, the EC50 [8] was 1.64 µM (active), the EC50 [9] was > 60 µM (not active) and the AC50 [4] was 23.9 µM (active). The AC50 [5] was 36 µM (active), the AC50 [6] was > 70 µM (inactive) and the AC50 [7] was 43 µM (active).
For `Nc1ccc2[nH]c(C3CCCCC3)nc2c1`, the AC50 [1] was 1.13 µM (active) and the IC50 [10] was 70.2 µM (active).
In the case of `COc1ccc(N2CCN(C(=O)Cc3ccc(OC)c(OC)c3)CC2)cc1`, the AC50 [1] was 7.7 µM (active).
For `Cc1ccc(/C=C2/Sc3ccc(C(=O)N4CCC5(CC4)OCCO5)cc3NC2=O)cc1`, the EC50 [2] was 4.37 µM (active), the EC50 [11] was 7.6 µM (active) and the EC50 [3] was 8.06 µM (inconclusive). For the same molecule, the EC50 (Streptokinase A) was > 150 µM (not active) and the EC50 (Streptococcus) was 9.49 µM (active).
With `O=C(CNCC1CCCCC1)Nc1ccc(N2CCCCC2)cc1` the AC50 [1] was 13.4 µM (active).
In the case of `CCCc1nc(-c2ccccc2O)n(-c2ccccc2)n1`, the EC50 [12] was > 195 µM (not active).
In the case of `COCc1cc(O)n2ncc(-c3ccsc3)c2n1`, the AC50 [1] was 3.5 µM (active).
With `Cn1cc(CN2CCc3ccccc3C2)c2ccccc21` the EC50 [12] was > 195 µM (not active).
For `COc1ccccc1C(=O)Nc1ccc2c(c1)nc1n2CCSC1`, the AC50 [1] was 0.076 µM (active).
For `Cc1ccc(N2C(=O)NC(=O)/C(=C\c3cc(C)n(-c4cc(C(=O)O)cc(C(=O)O)c4)c3C)C2=O)cc1`, the EC50 [2] was > 300 µM (not active) and the EC50 [3] was > 300 µM (not active).
With `O=C(CCc1ccccc1)Nc1cccc([N+](=O)[O-])c1` the EC50 [12] was > 195 µM (not active).
For `CCCCCn1c(SCC(=O)CC(=O)OCC)nc2cc(C(=O)N3CCC(C(N)=O)CC3)ccc2c1=O`, the EC50 [12] was > 195 µM (not active).
With `Cc1n[nH]c2ncc(C(=O)c3ccccc3O)cc12` the AC50 [4] was 6.5 µM (active), the AC50 [5] was 0.606 µM (active) and the AC50 [6] was 2.78 µM (active). The AC50 [7] was 4.64 µM (active).
With `Cc1cc(OCC(=O)NCCc2ccc(S(N)(=O)=O)cc2)c2c(C)cc(=O)oc2c1` the EC50 [12] was > 195 µM (not active).
With `c1ccc(CN2C3=NCCN3c3ccccc32)cc1` the AC50 [1] was 40.9 µM (active).
For `c1cnc2ccc(C(c3nnnn3C3CCCCC3)N3CCCCC3)cc2c1` (stereo not given), the AC50 [4] was 4.05 µM (active), the AC50 [5] was 14.9 µM (active) and the AC50 [6] was 6.97 µM (active). For the same molecule, the AC50 [7] was 10.1 µM (active).
In the case of `C[C@H]1CN([C@@H](C)CO)C(=O)Cc2cc(NS(=O)(=O)c3ccccc3)ccc2O[C@H]1CN(C)Cc1ccc(C(=O)Nc2ccccc2N)cc1`, the AC50 [13] was 3.55 µM (active).
In the case of `C[C@H]1CN([C@@H](C)CO)C(=O)Cc2cc(N(C)C)ccc2O[C@H]1CN(C)Cc1ccc(Oc2ccccc2)cc1`, the AC50 [13] was 1.57 µM (active).
With `C[C@H]1CN([C@@H](C)CO)C(=O)Cc2cc(NS(=O)(=O)c3ccc(F)cc3)ccc2O[C@@H]1CN(C)Cc1ccc(-c2ccccc2)cc1` the AC50 [13] was 3.21 µM (active).
With `C[C@H](CO)N1C[C@H](C)[C@H](CN(C)CC2CC2)Oc2c(NC(=O)Nc3ccc(C(F)(F)F)cc3)cccc2C1=O` the AC50 [13] was 2.66 µM (active).
For `C[C@@H]1CN([C@@H](C)CO)C(=O)c2cccc(NC(=O)C3CCCCC3)c2O[C@H]1CN(C)CC1CC1`, the AC50 [13] was 8.92 µM (active).
For `COc1ccc(S(=O)(=O)Nc2ccc3c(c2)C(=O)N([C@@H](C)CO)C[C@H](C)[C@H](CN(C)Cc2ccc(C(F)(F)F)cc2)O3)cc1`, the AC50 [13] was 4.07 µM (active).
For `COc1ccc(NC(=O)Nc2ccc3c(c2)CC(=O)N([C@@H](C)CO)C[C@H](C)[C@H](CN(C)Cc2ccc(-c4ccccc4)cc2)O3)cc1`, the AC50 [13] was 3.37 µM (active).
For `C[C@H]1CN([C@@H](C)CO)C(=O)Cc2cc(NC(=O)Cc3cn(C)c4ccccc34)ccc2O[C@H]1CN(C)Cc1ccc(Oc2ccccc2)cc1`, the AC50 [13] was 5.58 µM (active).
In the case of `Cc1ccc(S(=O)(=O)N(C)C[C@@H]2Oc3ncc(Br)cc3C(=O)N([C@@H](C)CO)C[C@@H]2C)cc1`, the AC50 [4] was 4.36 µM (active), the AC50 [5] was 3.56 µM (active) and the AC50 [7] was 9.72 µM (active).
With `CCCCCC(=O)N/N=C/c1cc(Br)c(O)c(OC)c1` the AC50 [1] was 0.098 µM (active).
